{"source": "patent US8247211B2", "about": "“Glycopeptide antibiotics” (American Cyanamid Company, priority 2001, dated 2012)", "experiment_in_all_cases": "In vitro antibacterial evaluation: minimum inhibitory concentration (MIC), broth dilution method", "assay_type_in_all_cases": "cell-based", "key": {"Escherichia coli": {"test_system": "Escherichia coli", "settings": "broth dilution, 18 hours at 35° C."}, "Streptococcus sp.": {"test_system": "Streptococcus sp.", "settings": "broth dilution, 18 hours at 35° C.", "method_in_brief": "(§1)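 Values are minimum inhibitory concentrations, meaning the smallest antibiotic concentration that stops growth of the organism. They come from broth dilution in Muller-Hinton II […] per NCCLS guidance (M7-A2), using 5×10^5 CFU/mL and concentrations from 64 to 0.06 μg/mL.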"}, "Enterococcus sp.": {"test_system": "Enterococcus sp.", "settings": "broth dilution, 18 hours at 35° C.", "method_in_brief": "as §1"}, "Staphylococcus sp.": {"test_system": "Staphylococcus sp.", "settings": "broth dilution, 18 hours at 35° C.; for MIC Staphylococcus aureus-SMITH (GC 4543): strain SMITH GC 4543", "method_in_brief": "as §1"}, "[1]": {"settings": "Streptococcus agalactiae (GC 4564)"}, "[2]": {"settings": "Streptococcus pneumoniae (ATCC 6301)"}, "[3]": {"settings": "Streptococcus pneumoniae (GC 1894)"}, "[4]": {"settings": "Streptococcus pneumoniae (GC 4565)"}, "[5]": {"settings": "Streptococcus pyogenes (GC 4563)"}, "[6]": {"settings": "Enterococcus faecalis (ATCC 29212)"}, "[7]": {"settings": "Enterococcus faecalis (GC 2242)"}, "[8]": {"settings": "Enterococcus faecalis (GC 2691)"}, "[9]": {"settings": "Enterococcus faecalis (GC 4553)"}, "[10]": {"settings": "Enterococcus faecalis (GC 6189)"}}}
{"smiles": "CC(c1ccccc1)C1NC(=O)CNC(=O)C(CO)NC(=O)C(C(O)C2CNC(=N)N2C2OC(CO)C(O)C(O)C2O)NC(=O)C(C(O)C2CNC(=N)N2)NC(=O)C(Cc2ccc3oc(-c4ccc(OCc5ccccc5)cc4)nc3c2)NC1=O", "note": "(stereo not drawn) [Example 31, Cyclo[3-[2-[4-(phenylmethoxy)phenyl]-1,3-benzoxazol-5-yl]alanyl-3-(2-iminoimidazolidin-4-yl)seryl-3-(3-hexopyranosyl-2-iminoimidazolidin-4-yl)serylserylglycyl-β-methyl-phenylalanyl]]", "values": [{"measurement": "MIC Escherichia coli (GC 4560)", "setting": "Escherichia coli", "value": 32, "unit": "mg/L"}, {"measurement": "MIC Streptococcus agalactiae (GC 4564)", "setting": "Streptococcus sp.; [1]", "value": 32, "unit": "mg/L"}, {"measurement": "MIC Streptococcus pneumoniae (ATCC 6301)", "setting": "Streptococcus sp.; [2]", "value": 16, "unit": "mg/L"}, {"measurement": "MIC Streptococcus pneumoniae (GC 1894)", "setting": "Streptococcus sp.; [3]", "value": 32, "unit": "mg/L"}, {"measurement": "MIC Streptococcus pneumoniae (GC 4565)", "setting": "Streptococcus sp.; [4]", "value": 64, "unit": "mg/L"}, {"measurement": "MIC Streptococcus pyogenes (GC 4563)", "setting": "Streptococcus sp.; [5]", "value": 8, "unit": "mg/L"}, {"measurement": "MIC Streptococcus agalactiae (GC 4564)", "setting": "Streptococcus sp.", "value": 32, "unit": "mg/L"}, {"measurement": "MIC Streptococcus pneumoniae (ATCC 6301)", "setting": "Streptococcus sp.", "value": 16, "unit": "mg/L"}, {"measurement": "MIC Streptococcus pneumoniae (GC 1894)", "setting": "Streptococcus sp.", "value": 32, "unit": "mg/L"}, {"measurement": "MIC Streptococcus pneumoniae (GC 4565)", "setting": "Streptococcus sp.", "value": 64, "unit": "mg/L"}, {"measurement": "MIC Streptococcus pyogenes (GC 4563)", "setting": "Streptococcus sp.", "value": 8, "unit": "mg/L"}, {"measurement": "MIC Enterococcus avium (GC 4558)", "setting": "Enterococcus sp.; Enterococcus avium (GC 4558)", "value": 8, "unit": "mg/L"}, {"measurement": "MIC Enterococcus faecalis (ATCC 29212)", "setting": "Enterococcus sp.; [6]", "value": 64, "unit": "mg/L"}, {"measurement": "MIC Enterococcus faecalis (GC 2242)", "setting": "Enterococcus sp.; [7]", "value": 64, "unit": "mg/L"}, {"measurement": "MIC Enterococcus faecalis (GC 2691)", "setting": "Enterococcus sp.; [8]", "value": 64, "unit": "mg/L"}, {"measurement": "MIC Enterococcus faecalis (GC 4553)", "setting": "Enterococcus sp.; [9]", "value": 16, "unit": "mg/L"}, {"measurement": "MIC Enterococcus faecalis (GC 6189)", "setting": "Enterococcus sp.; [10]", "value": 64, "unit": "mg/L"}, {"measurement": "MIC Enterococcus faecium (GC 2243)", "setting": "Enterococcus sp.; Enterococcus faecium (GC 2243)", "value": 32, "unit": "mg/L"}, {"measurement": "MIC Enterococcus faecium (GC 4556)", "setting": "Enterococcus sp.; Enterococcus faecium (GC 4556)", "value": 4, "unit": "mg/L"}, {"measurement": "MIC Enterococcus faecium (GC 4557)", "setting": "Enterococcus sp.; Enterococcus faecium (GC 4557)", "value": 4, "unit": "mg/L"}, {"measurement": "MIC Enterococcus avium (GC 4558)", "setting": "Enterococcus sp.", "value": 8, "unit": "mg/L"}, {"measurement": "MIC Enterococcus faecalis (ATCC 29212)", "setting": "Enterococcus sp.", "value": 64, "unit": "mg/L"}, {"measurement": "MIC Enterococcus faecalis (GC 2242)", "setting": "Enterococcus sp.", "value": 64, "unit": "mg/L"}, {"measurement": "MIC Enterococcus faecalis (GC 2691)", "setting": "Enterococcus sp.", "value": 64, "unit": "mg/L"}, {"measurement": "MIC Enterococcus faecalis (GC 4553)", "setting": "Enterococcus sp.", "value": 16, "unit": "mg/L"}, {"measurement": "MIC Enterococcus faecalis (GC 6189)", "setting": "Enterococcus sp.", "value": 64, "unit": "mg/L"}, {"measurement": "MIC Enterococcus faecium (GC 2243)", "setting": "Enterococcus sp.", "value": 32, "unit": "mg/L"}, {"measurement": "MIC Enterococcus faecium (GC 4556)", "setting": "Enterococcus sp.", "value": 4, "unit": "mg/L"}, {"measurement": "MIC Enterococcus faecium (GC 4557)", "setting": "Enterococcus sp.", "value": 4, "unit": "mg/L"}, {"measurement": "MIC Coagulase Negative Staphylococcus (GC 4547)", "setting": "Staphylococcus sp.", "value": 8, "unit": "mg/L"}, {"measurement": "MIC Coagulase Negative Staphylococcus (GC 4548)", "setting": "Staphylococcus sp.", "value": 8, "unit": "mg/L"}, {"measurement": "MIC Coagulase Negative Staphylococcus (GC 4549)", "setting": "Staphylococcus sp.", "value": 16, "unit": "mg/L"}, {"measurement": "MIC Coagulase Negative Staphylococcus (GC 4551)", "setting": "Staphylococcus sp.", "value": 16, "unit": "mg/L"}, {"measurement": "MIC Coagulase Negative Staphylococcus (GC 6257)", "setting": "Staphylococcus sp.", "value": 4, "unit": "mg/L"}, {"measurement": "MIC Staphylococcus aureus SMITH (GC 4543)", "setting": "Staphylococcus sp.", "value": 16, "unit": "mg/L"}, {"measurement": "MIC Staphylococcus haemolyticus (GC 4546)", "setting": "Staphylococcus sp.", "value": 8, "unit": "mg/L"}, {"measurement": "MIC Staphylococcus aureus-SMITH (GC 4543)", "setting": "Staphylococcus sp.", "value": 16, "unit": "mg/L"}]}
{"smiles": "CC(c1ccccc1)C1NC(=O)CNC(=O)C(CO)NC(=O)C(C(O)C2CNC(=N)N2C2OC(CO)C(O)C(O)C2O)NC(=O)C(C(O)C2CNC(=N)N2)NC(=O)C(Cc2ccc3oc(C=C(c4ccccc4)c4ccccc4)nc3c2)NC1=O", "note": "(stereo not drawn) [Example 39, Cyclo[3-[2-(2,2-diphenylethenyl)-1,3-benzoxazol-5-yl]alanyl-3-(2-iminoimidazolidin-4-yl)seryl-3-(3-hexopyranosyl-2-iminoimidazolidin-4-yl)serylserylglycyl-β-methylphenylalanyl]]", "values": [{"measurement": "MIC Escherichia coli (GC 4560)", "setting": "Escherichia coli", "value": 16, "unit": "mg/L"}, {"measurement": "MIC Streptococcus agalactiae (GC 4564)", "setting": "Streptococcus sp.; [1]", "value": 16, "unit": "mg/L"}, {"measurement": "MIC Streptococcus pneumoniae (ATCC 6301)", "setting": "Streptococcus sp.; [2]", "value": 8, "unit": "mg/L"}, {"measurement": "MIC Streptococcus pneumoniae (GC 1894)", "setting": "Streptococcus sp.; [3]", "value": 8, "unit": "mg/L"}, {"measurement": "MIC Streptococcus pneumoniae (GC 4565)", "setting": "Streptococcus sp.; [4]", "value": 16, "unit": "mg/L"}, {"measurement": "MIC Streptococcus pyogenes (GC 4563)", "setting": "Streptococcus sp.; [5]", "value": 4, "unit": "mg/L"}, {"measurement": "MIC Streptococcus agalactiae (GC 4564)", "setting": "Streptococcus sp.", "value": 16, "unit": "mg/L"}, {"measurement": "MIC Streptococcus pneumoniae (ATCC 6301)", "setting": "Streptococcus sp.", "value": 8, "unit": "mg/L"}, {"measurement": "MIC Streptococcus pneumoniae (GC 1894)", "setting": "Streptococcus sp.", "value": 8, "unit": "mg/L"}, {"measurement": "MIC Streptococcus pneumoniae (GC 4565)", "setting": "Streptococcus sp.", "value": 16, "unit": "mg/L"}, {"measurement": "MIC Streptococcus pyogenes (GC 4563)", "setting": "Streptococcus sp.", "value": 4, "unit": "mg/L"}, {"measurement": "MIC Enterococcus avium (GC 4558)", "setting": "Enterococcus sp.; Enterococcus avium (GC 4558)", "value": 8, "unit": "mg/L"}, {"measurement": "MIC Enterococcus faecalis (ATCC 29212)", "setting": "Enterococcus sp.; [6]", "value": 16, "unit": "mg/L"}, {"measurement": "MIC Enterococcus faecalis (GC 2242)", "setting": "Enterococcus sp.; [7]", "value": 16, "unit": "mg/L"}, {"measurement": "MIC Enterococcus faecalis (GC 2691)", "setting": "Enterococcus sp.; [8]", "value": 16, "unit": "mg/L"}, {"measurement": "MIC Enterococcus faecalis (GC 3059)", "setting": "Enterococcus sp.; Enterococcus faecalis (GC 3059)", "value": 16, "unit": "mg/L"}, {"measurement": "MIC Enterococcus faecalis (GC 4552)", "setting": "Enterococcus sp.; Enterococcus faecalis (GC 4552)", "value": 16, "unit": "mg/L"}, {"measurement": "MIC Enterococcus faecalis (GC 4553)", "setting": "Enterococcus sp.; [9]", "value": 8, "unit": "mg/L"}, {"measurement": "MIC Enterococcus faecalis (GC 4554)", "setting": "Enterococcus sp.; Enterococcus faecalis (GC 4554)", "value": 32, "unit": "mg/L"}, {"measurement": "MIC Enterococcus faecalis (GC 6189)", "setting": "Enterococcus sp.; [10]", "value": 16, "unit": "mg/L"}, {"measurement": "MIC Enterococcus faecium (GC 2243)", "setting": "Enterococcus sp.; Enterococcus faecium (GC 2243)", "value": 8, "unit": "mg/L"}, {"measurement": "MIC Enterococcus faecium (GC 4556)", "setting": "Enterococcus sp.; Enterococcus faecium (GC 4556)", "value": 32, "unit": "mg/L"}, {"measurement": "MIC Enterococcus faecium (GC 4557)", "setting": "Enterococcus sp.; Enterococcus faecium (GC 4557)", "value": 8, "unit": "mg/L"}, {"measurement": "MIC Enterococcus avium (GC 4558)", "setting": "Enterococcus sp.", "value": 8, "unit": "mg/L"}, {"measurement": "MIC Enterococcus faecalis (ATCC 29212)", "setting": "Enterococcus sp.", "value": 16, "unit": "mg/L"}, {"measurement": "MIC Enterococcus faecalis (GC 2242)", "setting": "Enterococcus sp.", "value": 16, "unit": "mg/L"}, {"measurement": "MIC Enterococcus faecalis (GC 2691)", "setting": "Enterococcus sp.", "value": 16, "unit": "mg/L"}, {"measurement": "MIC Enterococcus faecalis (GC 3059)", "setting": "Enterococcus sp.", "value": 16, "unit": "mg/L"}, {"measurement": "MIC Enterococcus faecalis (GC 4552)", "setting": "Enterococcus sp.", "value": 16, "unit": "mg/L"}, {"measurement": "MIC Enterococcus faecalis (GC 4553)", "setting": "Enterococcus sp.", "value": 8, "unit": "mg/L"}, {"measurement": "MIC Enterococcus faecalis (GC 4554)", "setting": "Enterococcus sp.", "value": 32, "unit": "mg/L"}, {"measurement": "MIC Enterococcus faecalis (GC 6189)", "setting": "Enterococcus sp.", "value": 16, "unit": "mg/L"}, {"measurement": "MIC Enterococcus faecium (GC 2243)", "setting": "Enterococcus sp.", "value": 8, "unit": "mg/L"}, {"measurement": "MIC Enterococcus faecium (GC 4556)", "setting": "Enterococcus sp.", "value": 32, "unit": "mg/L"}, {"measurement": "MIC Enterococcus faecium (GC 4557)", "setting": "Enterococcus sp.", "value": 8, "unit": "mg/L"}, {"measurement": "MIC Coagulase Negative Staphylococcus (GC 4547)", "setting": "Staphylococcus sp.", "value": 8, "unit": "mg/L"}, {"measurement": "MIC Coagulase Negative Staphylococcus (GC 4548)", "setting": "Staphylococcus sp.", "value": 8, "unit": "mg/L"}, {"measurement": "MIC Coagulase Negative Staphylococcus (GC 4549)", "setting": "Staphylococcus sp.", "value": 4, "unit": "mg/L"}, {"measurement": "MIC Coagulase Negative Staphylococcus (GC 4551)", "setting": "Staphylococcus sp.", "value": 8, "unit": "mg/L"}, {"measurement": "MIC Coagulase Negative Staphylococcus (GC 6257)", "setting": "Staphylococcus sp.", "value": 4, "unit": "mg/L"}, {"measurement": "MIC Staphylococcus aureus SMITH (GC 4543)", "setting": "Staphylococcus sp.", "value": 16, "unit": "mg/L"}, {"measurement": "MIC Staphylococcus haemolyticus (GC 4546)", "setting": "Staphylococcus sp.", "value": 8, "unit": "mg/L"}, {"measurement": "MIC Staphylococcus aureus-SMITH (GC 4543)", "setting": "Staphylococcus sp.", "value": 16, "unit": "mg/L"}]}
